Reference: publication PMC10515483, “Structure–Reactivity Studies of 2-Sulfonylpyrimidines Allow Selective Protein Arylation” (Bioconjugate Chemistry, 2023)

Assays:
[1] = GSH arylation rate constants (NMR; UV-vis for fast warheads); type: physicochemical; parameters: key to rate constant (k) for the reaction with GSH / k: NR = no reaction; details: for k change (vs ref): ratio to rate constant of 4q, acceleration (+) or deceleration (-)
From the text: We employed nuclear magnetic resonance (NMR) and UV–vis to quantify the reactivity of our 2-SP derivatives and other representative electrophiles (Figure 2) against cysteine. NMR allowed straightforward determination of reaction rate constants through dual monitoring of the consumption of the warhead and formation of the product by integration of their respective NMR signals (Figures S1–S3). It simultaneously provided a direct readout on reaction specificity and hydrolytic stability of the warhead. All measurements were carried out in KPi buffer in the presence of 5% d^6-dmso, which is generally well-tolerated by a wide range of proteins in in vitro studies. N-acetylcysteine methylester (NACME) and L-glutathione (GSH) are useful model cysteine nucleophiles for in vitro studies of electrophilic agents.[32] Mixing reference electrophile 2-methylsulfonylpyrimidine (4q) with NACME or GSH in a 1:10 ratio (pseudo-first-order conditions) allowed extraction of accurate and reproducible second order rate constants (k).
Figure 3 In vitro determination of electrophilic reactivity of compounds. (A) NMR assay setup for warhead/GSH reaction rate constant determination and chemoselectivity monitoring, over a 6 h time scale. Purple bead = GSH. Hydrolytic stability was determined in the same way over 36 h. d^4-Trimethylsilylpropanoate (TMSP, blue box) was used as an internal standard for monitoring the warhead solubility. Second-order reaction rate constants (k) were obtained from their pseudo-first-order counterparts (k′), by time-dependent normalized integration of the disappearing warhead signals. […] (B) Experimental second-order rate constants (y axis, log10 scale) for the reaction of representative 2-SP derivatives (left, 11 out of ca. 40 examples) and previously reported heteroarylsulfones (right) with GSH in a KPi buffer, pH 7.0, 20 °C. All rate constants were calculated as an average of at least two independent measurements. Numerical values and standard deviations at both pH 7.0 and 6.5, along with a full list of 2-SPs and other electrophile types tested, are presented in Tables S2–S6 and Figure S4. The horizontal dashed line marks the reaction rate of 2-methylsulfonylpyrimidine at pH 7.0, as a reference when comparing with other reagents (see main text).
To establish an accurate structure–reactivity profile of 2-SP reagents, we systematically determined their reaction rate constants for the arylation of GSH by NMR, at pH 7.0 and 6.5. This was a prerequisite to (i) quantify the influence of substitution on reaction rates; (ii) accurately assess the tunability and chemoselectivity of 2-SPs for cysteine arylation; (iii) determine the influence of pH on the reaction rates to further inform on the precise reaction mechanism; and (iv) benchmark the overall performance of 2-SPs with those of previously reported fast reacting heteroarylsulfones and other common cysteine reactive warheads (Figure 2C,D).

[2] = target: T1, p53-Y220C DBD (Homo sapiens, UniProt P04637, M133L/N239Y/N268D/V203A/Y220C); assay: Protein arylation by ESI mass spectrometry; type: binding
T1 construct: (residues 94-312); 6xHis/lipoyl domain/TEV protease cleavage site (N, cleaved yes); made in house; host or cells: E. coli C41
Description: In mass spectrometry experiments, we incubated 50 μM purified p53-Y220C DBD in KPi buffer at varying pH’s (6.0–8.0), temperatures (0 and 20 °C), and equivalents of 2-SPs (20–100). Representative 2-SPs were selected to span a broad reactivity range to determine whether trends observed in GSH in vitro assays translate to relative rates of modification of solvent exposed cysteines in folded proteins. […] The same could also be achieved with only 20 equiv of reagent by increasing the temperature to 20 °C, or raising the pH to 8.0. This is an important result because late-stage protein functionalization with bromo- and iodo-(hetero)aromatic motifs is challenging and inaccessible by metal-catalyzed arylation methodologies due to dehalogenation and/or off-target specificity. The introduction of an iodo-(hetero)aromatic motif on the protein surface facilitates drastically the crystal structure resolution with a sharp variation of density. […] Overall, we observed good correlation between GSH and protein experiments.
Figure 4 Biophysical and structural characterization of protein cysteine arylation by 2-SPs. […] Stoichiometry, reaction time/temperature, and pH are indicated in each case. X axis: m/z (Da). Y axis: normalized intensities as a percentage of the most intense peak. Middle: Structure of the modified Y220C mutant (green) superimposed onto the structure of the unmodified protein (gray, PDB entry 6SHZ)[40] showing the region around modified C182 (E) and C277 (F). Hydrogen bonds formed by the pyrimidine are highlighted as dashed yellow lines. 2Fo – Fc electron density maps are shown at a contour level of 1.3σ for segments of chain B including the modified residues C182 and C277. Bottom (F): Protein thermal stability (ΔTm, °C) of p53-Y220C, β-catenin ARD. and FGE, determined by DSF in the presence of 100 μM 2-SP derivatives. […]

[3] = Hydrolytic stability in KPi buffer without thiol (NMR); type: physicochemical; details: pH 8.2; over 12 hours; 50 mM KPi; footnote a: crashing out of solution, no degradation product
Description: NMR studies: rate constant determination and hydrolytic stability. 850 µL of 50 mM Kpi buffer solution (pH 8.2 or 7), 20 µL of the appropriate pyrimidine stock s olution (100 mM in DMSO -d6), 20 µL of TMSP stock solution (22.2 mM in DI water), 30 µL DMSO -d6, and 80 µL of GSH stock solution (0.25 M in DI water, reactivity only) were successively added/mixed at room temperature, final pH 7.0 or 6.5 (Table S1). 600 µL of this freshly prepared solution was poured into an NMR tube and immediately […]
transferred to the NMR instrument for acquisition. 1H spectra (16 scans) were recorded every 10 minutes under water suppression conditions. Following acquisition, spectra were analysed using […]
order reaction rate constants (k’).

[4] = Solubility in KPi buffer by NMR with TMSP internal standard; details: 50 mM KPi aqueous buffer, pH 7, aqueous with cosolvent or surfactant or cyclodextrin, kinetic from dmso stock
From the text: Stability and solubility assays
(§1) TopSpin. Normalised integrations of the pyrimidine aromatic 1H signals in the starting material and
(§2) product were plotted as a function of time (s), using the TMSP peak as standard for integral
(§3) calibration/normalisation and monitoring of compound solubility, allowing extraction of pseudo first
(§4) order reaction rate constants (k’). Second order rate constants (k) were back calculated from the ratio
(§5) of the pseudo first counterparts and the concentration of thiol in solution.
(§6) was confirmed by formation of a single S-arylated product (characteristic 2-alkylthioether signals),
(§7) concomitant with formation of the sulfinic acid by -product (leaving group). Hydrolytic stability
(§8) assessment was performed at pH 7.0 and pH 8.2 in a similar manner, in the absence of thiol.
(§9) Chemoselectivity. Similarly, but replacing GSH by other amino acids , reference 2-
(§10) methylsulfonylpyrimidine 4q in 50 mM KPi (pH 8.2) was incubated with 10 equivalents of either Boc-
(§11) Lys-OH, L-ser-OMe, N-Ac-Tyr-OH or Proline were used.

[5] = test system: p53; parameters: method as in PMID 19411067; details: in vitro; cited from earlier work
[6] = parameters: method as in PMID 11747461; details: cited from earlier work
[7] = pH 7
From the text: Stability and solubility assays
as §1, §2, §3, §4, §5, §6, §7, §8, §9, §10, §11

COc1cnc(S(C)(=O)=O)nc1 [4n]
rate constant (k) for the reaction with GSH ([1]; pH 6.5, by NMR, KPi buffer, 5% DMSO-d6): NR | second order rate constant k with GSH ([1]; pH 7.0, KPi buffer): < 5.0 × 10^–5 M^–1 s^–1 | rate constant (k) for the reaction with GSH ([1]; pH 7.0, by NMR, KPi buffer, 5% DMSO-d6): NR | protein modification by ESI-MS (in words) ([2]; 50 μM protein, all conditions tested, even after 4 h at 20 °C): could not detect any protein modification

COC(=O)c1cnc(S(C)(=O)=O)nc1 [4y]
k ([1]; Table S8, rate constants obtained at pH = 7): 9900 M⁻¹ s⁻¹ | second order rate constant k with GSH ([1]; pH 7.0, KPi buffer): ≈ 9900 M^–1 s^–1 | k change (vs ref) ([1]; pH 7.0): +396,000 fold | k/kref ([1]; relative to 4q): 396000 | ΔΔG≠1exp ([1]; relative to 4q, via -RTln(k/kref)): -7.65 kcal/mol | % degradation [3]: 100% | protein arylation by ESI-MS (in words) ([2]; 20 equiv, pH 6.0, 0 °C): complete and clean double protein arylation | time to complete double arylation ([2]; 20 equiv, pH 6.0, 0 °C): under 30 s | melting point: 128 °C | solubility [4]: ≥ 2000 µM

C=C1C(=O)C2CCN1CC2 [APR-244-MQ]
number of cysteines reacted [5]: up to nine

N[C@@H](CCC(=O)N[C@@H](CS)C(=O)NCC(=O)O)C(=O)O [GSH, L-glutathione]
pKa of the sulfhydryl group [6]: 9.2

2-methylsulfonyl-1,3,4-oxadiazole 5-phenyl [compound 8, reference compound]
rate constant (k) for the reaction with GSH ([1]; pH 6.5, measured by UV titrations): 35 ± 2 M⁻¹ s⁻¹ | second order rate constant k with GSH ([1]; pH 7.0, KPi buffer): ≈ 160 M^–1 s^–1 | rate constant (k) for the reaction with GSH ([1]; pH 7.0, measured by UV titrations): 160 ± 9.2 M⁻¹ s⁻¹ | k change (vs ref) ([1]; pH 7.0): +6,400 fold | Solubility upon mixing (t0) [7]: 100 µM

COC(=O)[C@H](CS)NC(C)=O [NACME, N-acetylcysteine methylester]
pKa of the sulfhydryl group [6]: 8.3
